# Earlier results, collected in patent US20140147549A1, “CARBOHYDRATE BAR” (NESTEC S.A., priority 2008, published 2014).
# Conditions: previous research data, single carbohydrate source alone
smiles,measurement,value
O=C(CO)[C@@H](O)[C@H](O)[C@H](O)CO [fructose],"peak exogenous carbohydrate oxidation, single carbohydrate source",~0.4 g/min
